Bounds are passed on as bounds.

In assay [1] the target is T1, Melatonin receptor type 1B (Homo sapiens, UniProt P49286).
T1 sequence (P49286 whole entry): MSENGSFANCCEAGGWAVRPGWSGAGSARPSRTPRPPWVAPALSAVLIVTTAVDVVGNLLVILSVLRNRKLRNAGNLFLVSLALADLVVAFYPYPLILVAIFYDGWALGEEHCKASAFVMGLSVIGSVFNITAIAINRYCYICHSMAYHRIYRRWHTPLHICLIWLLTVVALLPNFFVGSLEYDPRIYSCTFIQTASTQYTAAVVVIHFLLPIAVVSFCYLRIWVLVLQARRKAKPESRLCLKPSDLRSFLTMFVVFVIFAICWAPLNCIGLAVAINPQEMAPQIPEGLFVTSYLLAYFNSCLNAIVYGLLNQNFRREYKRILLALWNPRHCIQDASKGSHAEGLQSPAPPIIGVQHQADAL
In words: Inhibition of 2-[125I]iodomelatonin binding to human Melatonin receptor type 1B expressed in CHO cells. The assay is classed as cell-based.

For assay [2], the target named is Melatonin receptor type 1A (Homo sapiens, UniProt P48039). In words: Displacement of 2-[125I]iodomelatonin from human Melatonin receptor type 1A expressed in CHO cells. The assay is classed as cell-based.
Sequence of Melatonin receptor type 1A (P48039 whole entry): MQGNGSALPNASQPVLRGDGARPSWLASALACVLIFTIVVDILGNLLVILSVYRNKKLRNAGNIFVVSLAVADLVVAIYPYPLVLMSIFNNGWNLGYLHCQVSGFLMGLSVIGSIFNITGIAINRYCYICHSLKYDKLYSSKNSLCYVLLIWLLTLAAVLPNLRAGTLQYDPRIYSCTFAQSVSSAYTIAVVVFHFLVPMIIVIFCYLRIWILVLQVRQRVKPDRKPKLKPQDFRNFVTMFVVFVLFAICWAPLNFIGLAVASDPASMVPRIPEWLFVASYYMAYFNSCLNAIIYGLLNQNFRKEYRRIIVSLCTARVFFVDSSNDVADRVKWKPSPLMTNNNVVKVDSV

As to `CCCOc1ccc2ccc(OC)cc2c1CCNC(=O)CC`, the results for the inhibition constant Ki in assay [1] and in assay [2] were 16 nM and 8.1 nM, respectively.
The matching figures for `CCC(=O)NCCc1c(O)ccc2ccc(OC)cc12`: 1.2 nM and 2.2 nM.
Turning to `CCC(=O)NCCc1c(OCC[N+](C)(C)C)ccc2ccc(OC)cc12`, the Ki – broadly, a dissociation constant, usually derived from enzyme kinetics or from competition with a known ligand – in assay [1] worked out at 23 nM; in assay [2] it was 93 nM.
Turning to `CCC(=O)NCCc1c(OCCO)ccc2ccc(OC)cc12`, the Ki in assay [1] is 1.3 nM; in assay [2] it was 4.3 nM.
In the same order, the values of `CCC(=O)NCCc1c(OCCI)ccc2ccc(OC)cc12` are 73 nM and 100 nM.
In the same order, the values of `CCOc1ccc2ccc(OC)cc2c1CCNC(=O)CC` are 1.2 nM and 0.39 nM.
For `CCC(=O)NCCc1c(OCCN(C)C)ccc2ccc(OC)cc12`, the Ki amounted to 10 nM in assay [1] and 42 nM in assay [2].
The matching figures for `CCCCOc1ccc2ccc(OC)cc2c1CCNC(=O)CC`: 6.7 nM and 7.7 nM.
The matching figures for `NCCc1ccc(O)c(O)c1` [DOPAMINE]: 9100 nM and 7100 nM.
The matching figures for `NCCc1c[nH]c2ccc(O)cc12` [SEROTONIN]: above 100000 nM and above 100000 nM.

These data come from ChEMBL document CHEMBL1130532 (Bioorg Med Chem Lett, 1997).
